Experimental data published in patent US4018765A, “Process for the preparation of certain hydroperoxy derivatives” (Hoffmann-La Roche Inc., priority 1975, dated 1977).
Where two headings read alike, the source gives them in different places.

What was measured:
Assay type in all cases: in vivo
mice [1] = test: psychostimulant activity (pharmacological tests in animals such as mice); conditions: similarly tested
Description: (§1) As has been indicated hereinabove the novel end products of this invention, i.e., the compounds of formula I and their pharmaceutically acceptable acid addition salts and the compounds of formula II-d and their pharmaceutically acceptable acid addition salts, are useful as psychostimulants. When administered, for example, orally, or animals such as mice they produce a direct-acting stimulant effect of long duration in single doses in amounts ranging from 0.03 mg/kg to 50 mg/kg. […] Exp. Path. and Pharm., Vol. 140, page 237). The compounds of this invention have psychostimulant effects qualitatively similar in many respect to those of imipramine and amphetamine which are wellknown for their therapeutic uses and properties.

[2] = test system: ptosis induced by tetrabenzene in mice; test: prevention of ptosis induced by tetrabenzene (tetrabenazene) in mice; conditions: Mus musculus, po, read-out: dose that prevented the ptosis induced by tetrabenzene
Description: as §1

[3] = test system: effects of β-(3,4-dihydroxyphenyl)-α-alanine (DOPA) in mice; test: DOPA potentiation test in mice; conditions: Mus musculus, ip
Description: as §1

mice [4] = test: writhing test in mice (analgesic); conditions: p.o.
Description: (§2) In addition to their use as psychostimulants, the compounds of formulas I and II-d are also useful as analgesic agents. […] For example, 2-(2-benzoylphenyl)-2-imadazoline in dogs at 4 mg/kg i.v. produced an increase in blood pressure of 10 mm. Hg after 2 minutes followed by gradual increase to 25 mm. Hg.

unanesthetized cat = unanesthetized cat test for muscle relaxants; conditions: p.o.
Description: as §2

dogs = test: blood pressure in dogs; conditions: 4 mg/kg i.v.
Description: as §2

animals = test: analgesic properties (pharmacological tests in animals); conditions: based on the pharmacological tests in animals
Description: as §2

[5] = test system: hypothermia induced by reserpine in mice; test: reversal of hypothermia induced by reserpine in mice; conditions: Mus musculus, po, reserpine 10 mg/kg s.c., read-out: dose that reversed the hypothermia and hypometabolic effects induced by reserpine
Description: as §1

[6] = mice, i.p., read-out: dose that potentiated the effects of DOPA
[7] = comparison drugs, read-out: dose showing psychostimulant activity in the DOPA potentiation test

SMILES: COc1ccc(C2(O)c3ccccc3C3=NCCN32)cc1 (centres unmarked) [2,3-dihydro-5-hydroxy-5-(4-methoxyphenyl)-5H-imidazo[2,1-a]-isoindole]
- psychostimulant test result relative to 2-(2-benzoylphenyl)-2-imidazoline (mice [1]): qualitatively similar to 2-(2-benzoylphenyl)-2-imidazoline

SMILES: OC1(c2ccc(Cl)cc2)c2ccccc2C2=NCCN21 (centres unmarked) [5-(4-chlorophenyl)-2,3-dihydro-5-hydroxy-5H-imidazo[2,1-a]-isoindole]
- psychostimulant test result relative to 2-(2-benzoylphenyl)-2-imidazoline (mice [1]): qualitatively similar to 2-(2-benzoylphenyl)-2-imidazoline

SMILES: O=C(c1ccccc1)c1ccccc1C1=NCCN1 [Example 10, 2-(2-benzoylphenyl)-2-imidazoline]
- minimal effective dose [2]: 0.06 mg/kg
- minimal effective dose [3, 6]: 6.25 mg/kg
- dose with marked activity in the writhing test (mice [4]): 30.8 mg/kg
- dose active in the unanesthetized cat test for muscle relaxants (unanesthetized cat): 2.5 mg/kg
- increase in blood pressure after 2 minutes (dogs; after 2 minutes): 10 mm. Hg
- increase in blood pressure, following gradual increase (dogs; gradual increase after the first 2 minutes): 25 mm. Hg
- analgesic properties relative to phenylbutazone (animals): can be likened to the analgesic properties of phenylbutazone

SMILES: COC1(c2ccccc2)c2ccccc2C2=NCCN21 (centres unmarked) [Example 19, 2,3-dihydro-5-methoxy-5-phenyl-5H-imidazo[2,1-a]isoindole]
- psychostimulant test result relative to 2-(2-benzoylphenyl)-2-imidazoline (mice [1]): qualitatively similar to 2-(2-benzoylphenyl)-2-imidazoline

SMILES: OC1(c2ccccc2)c2ccccc2C2=NCCCCN21 (centres unmarked) [Example 21, 2,3,4,5-tetrahydro-7-hydroxy-7-phenyl-7H-diazepino-[2,1-a]isoindole]
- minimal effective dose [5]: 25 mg/kg
- minimal effective dose [3, 6]: 7.5 mg/kg

SMILES: CC(N)Cc1ccccc1 (centres unmarked) [amphetamine, reference compound]
- minimal effective dose [3, 7]: 1 mg/kg

SMILES: CN(C)CCCN1c2ccccc2CCc2ccccc21 [imipramine, reference compound]
- minimal effective dose [3, 7]: 10 mg/kg
